The test system of assay [1] is BRAFV600E-mutant lung cancer patient-derived xenografts (PDX). Description: ERK inhibitor monotherapy of lung cancer PDX, tumor growth. Particulars: SCH984 75 mpk; FIG. 1B. In kind it is in vivo, mice. An excerpt:
These were established as described^38,39, in accordance with the Memorial Sloan Kettering Cancer Center Institutional Review Board. Informed consent was obtained in all cases. All animal studies were done in accordance with protocols approved by the MSKCC Animal Care and Use Committee. Melanoma models were generated previously40. Patient derived tissue (biopsy or surgical resection) or pleural fluid was used to establish the lung cancer models in Table I. For biopsy or resection specimens, the tumor sample was minced under aseptic conditions, vigorously washed in 1×PBS, passed through a 60-μm filter, centrifuged, and then re-suspended in 500 μL of Matrigel (BD Biosciences) at 4° C. For pleural effusions, the fluid was centrifuged in order to isolate the cellular fraction and washed several times in cold PBS. Cells were then injected subcutaneously in the flanks of NSG mice and monitored for tumor growth. […]
Nu/nu athymic or NSG mice were obtained from the Harlan Laboratories and maintained in compliance with IACUC guidelines. […] Doubling times were calculated by fitting tumor volumes into exponential growth curves and determining their rate constants in Prism. […] Statistically significant differences in rate constants were determined by using the extra-sum-of-squares F test (with p<0.05) embedded in Prism. […]

Another assay concerns ERK. Particulars: cited from earlier work.

As for `CS[C@@]1(C(=O)Nc2ccc3[nH]nc(-c4ccc(OC(C)C)nc4)c3c2)CCN(CC(=O)N2CC=C(c3ccc(-c4ncn(C)n4)cc3)CC2)C1` [SCH984], in assay [1], the “PDX tested in which growth was inhibited” value is listed as 3/4 and the duration of response result is recorded as “several weeks”. In addition, in the assay on ERK (ATP-competitive inhibitor), the “effect on ERK kinase activity and ERK phosphorylation by MEK” value was “inhibits the kinase activity of ERK and prevents its phosphorylation by MEK”. In the assay with ERK, the “preference for phosphorylation state of ERK” value is listed as “preferentially targets unphosphorylated ERK”.
